# Results taken from patent US11576859B2, “Gastric residence systems for sustained release of therapeutic agents and methods of use thereof” (Lyndra Therapeutics, Inc., priority 2015, dated 2023).
# Legend:
# [1] = Time dependent thermal processing stability of aripiprazole at 100 °C; conditions: for Visual Observation / Impurity % 0.86 RRT: extruded at 100 °C
# [2] = method not given; cited from earlier work
# [3] = physchem; conditions: thermodynamic from solid
# [4] = physchem; conditions: water, thermodynamic from solid
# Excerpt: First, various surfactants were screened for their ability to improve aripiprazole solubility in FaSSGF and water. Equilibrium solubility of aripiprazole in the presence of surfactants was estimated in water and FaSSGF by the procedure described in Example 50.
# [5] = Aripiprazole stability versus processing temperature
# [6] = PCL/SGF partition coefficient; assay type: physicochemical; conditions: 5:1 PCL diol (MW 530):ethyl acetate versus FaSSGF
# Procedure: Partitioning of active pharmaceutical ingredient (API) between the structural polymer, polycaprolactone (PCL), and fasted state simulated gastric fluid (FaSSGF) is of interest for predicting API release rate from PCL-based formulations. To measure the PCL-SGF partition coefficient of an API, a concentrated stock solution of API was added to a mixture of 1 mL FaSSGF and 1 mL of 5:1 PCL diol (MW 530):ethyl acetate. The sample was vortexed and centrifuged at 10000 rpm for 5 minutes. The SGF phase was analyzed by HPLC to measure drug concentration. The PCL phase was diluted in methanol prior to quantification on HPLC.
# [7] = Rosuvastatin forced degradation in solution and in polycaprolactone formulation; assay type: physicochemical
# Procedure: SOLUTION CONDITIONS: For acid degradation studies, rosuvastatin was dissolved to 1 mg/mL in 0.1M HCl and heated for the specified time and temperature. For alkaline degradation, rosuvastatin was dissolved to 1 mg/mL in 0.1M NaOH and heated to 80° C. for 1 h. For oxidative degradation, rosuvastatin was dissolved to 1 mg/mL in 30% hydrogen peroxide and heated to 80° C. for 30 min. For stability over time, rosuvastatin was dissolved to 1 mg/mL in water at room temperature for 5 days. For thermal degradation studies in solution, rosuvastatin was dissolved to 1 mg/mL in dimethylsulfoxide and heated to the specified temperature for 2 h. In each case, samples of the solution were diluted in methanol and analyzed by LCMS to determine the ratio of intact drug to degraded drug.
# POLYMER CONDITIONS: For thermal degradation studies in formulation, rosuvastatin was blended with PCL at a ratio of 25:75 drug:PCL and the blend was heated to the specified temperature for 2 h. The drug-polymer blend was then dissolved in dichloromethane and this solution was added to excess methanol to precipitate PCL. Samples of the methanol solution were then analyzed by LCMS to determine the ratio of intact drug to degraded drug.
# [8] = as above; assay type: physicochemical; conditions: Heat: 1 mg/mL drug in DMSO, 1 h
# [9] = oral, once daily; cited from earlier work
# [10] = extruded at 90 °C, same formulation
# [11] = extruded at 100 °C, same formulation
# [12] = extruded at 120 °C, same formulation
# [13] = extruded at 140 °C, same formulation
# [14] = extruded at 160 °C, same formulation
# [15] = extruded at 180 °C, same formulation
compound,measurement,setting,value
O=C1CCc2ccc(OCCCCN3CCN(c4cccc(Cl)c4Cl)CC3)cc2N1 [Aripiprazole],degradation at 100 °C at all the timepoints,"[1]; 5 to 30 minutes extrusion, same formulation",no significant degradation
same,Visual Observation,"[1]; 5 min, 75 rpm, 20% aripiprazole/10% Kolliphor P407/10% Eudragit EPO/80 K PCL formulation",White colored extrudate
same,Impurity % 0.86 RRT,"[1]; 5 min, same formulation",0.08%
same,Impurity % 0.86 RRT,"[1]; 10 min, same formulation",0.08%
same,Visual Observation,"[1]; 10 min, same formulation",White colored extrudate
same,Impurity % 0.86 RRT,"[1]; 15 min, same formulation",0.08%
same,Visual Observation,"[1]; 15 min, same formulation",White colored extrudate
same,Impurity % 0.86 RRT,"[1]; 20 min, same formulation",0.08%
same,Visual Observation,"[1]; 20 min, same formulation",White colored extrudate
same,Impurity % 0.86 RRT,"[1]; 30 min, same formulation",0.08%
same,Visual Observation,"[1]; 30 min, same formulation",White colored extrudate
same,LogP (Octanol/water),[2],5.59
same,solubility,"[3]; pH 1.06, simulated gastric fluid",500 µg/mL
same,solubility,"[3]; pH 3, aqueous buffer",120 µg/mL
same,solubility,"[3]; pH 4.65, aqueous buffer",110 µg/mL
same,solubility,[4],~0.456 µg/mL
same,Visual Observation,"[5]; extruded at 90 °C, 10 min batch mixing 75 rpm, 20% Aripiprazole/10% Kolliphor P407/10% Eudragit EPO/80 K PCL formulation",White
same,% Impurity Total,[5]; [10],<0.05%
same,% Impurity at RRT 0.64,[5]; [10],<0.05%
same,% Impurity Total,[5]; [11],<0.05%
same,% Impurity at RRT 0.64,[5]; [11],<0.05%
same,Visual Observation,[5]; [11],White
same,% Impurity Total,[5]; [12],<0.05%
same,% Impurity at RRT 0.64,[5]; [12],<0.05%
same,Visual Observation,[5]; [12],White
same,% Impurity Total,[5]; [13],0.14%
same,% Impurity at RRT 0.64,[5]; [13],<0.05%
same,% Impurity at RRT 0.86,[5]; [13],0.14%
same,Visual Observation,[5]; [13],Slight pink
same,% Impurity Total,[5]; [14],0.21%
same,% Impurity at RRT 0.22,[5]; [14],0.08%
same,% Impurity at RRT 0.42,[5]; [14],0.08%
same,% Impurity at RRT 0.64,[5]; [14],0.05%
same,Visual Observation,[5]; [14],Brown
same,% Impurity Total,[5]; [15],0.60%
same,% Impurity at RRT 0.22,[5]; [15],0.28%
same,% Impurity at RRT 0.42,[5]; [15],0.12%
same,% Impurity at RRT 0.64,[5]; [15],0.07%
same,% Impurity at RRT 0.71,[5]; [15],<0.05%
same,% Impurity at RRT 0.81,[5]; [15],0.05%
same,% Impurity at RRT 0.93,[5]; [15],0.08%
same,Visual Observation,[5]; [15],Brown
same,LogP (PCL/SGF),[6],1.67
same,PCL/SGF Partition Coefficient,[6],49
CC12CC3CC(C)(C1)CC(N)(C3)C2 [Memantine],LogP (PCL/SGF),[6],−0.56
same,PCL/SGF Partition Coefficient,[6],0.28
Cc1nc2n(c(=O)c1CCN1CCC(c3noc4cc(F)ccc34)CC1)CCCC2 [Risperidone],PCL/SGF Partition Coefficient,[6],0.03
CC(C)c1nc(N(C)S(C)(=O)=O)nc(-c2ccc(F)cc2)c1/C=C/[C@@H](O)C[C@@H](O)CC(=O)[O-].CC(C)c1nc(N(C)S(C)(=O)=O)nc(-c2ccc(F)cc2)c1/C=C/[C@@H](O)C[C@@H](O)CC(=O)[O-].[Ca+2] [Rosuvastatin calcium],% Intact drug,"[7]; Acid: 0.1N HCl, 37 C., 2 d",66%
same,% Intact drug,"[7]; Acid: 0.1N HCl, 37 C., overnight, 1 mg/mL",87%
same,% Intact drug,"[7]; Acid: 0.1N HCl, 50 C., 4 h",93%
same,% Intact drug,"[7]; Acid: 0.1N HCl, 50 C., overnight",58%
same,% Intact drug,"[7]; Acid: 0.1N HCl, 80 C., 1 h",~100%
same,% Intact drug,"[7]; Base: 0.1M NaOH, 80 C., 1 h",~100%
same,% Intact drug,"[7]; Heat: 1 mg/mL drug in DMSO, 100 C., 2 h",86%
same,% Intact drug,"[7]; Heat: 1 mg/mL drug in DMSO, 120 C., 2 h",77%
same,% Intact drug,"[7]; Oxidation: 30% H2O2, 80 C., 30 min",~100%
same,% Intact drug,"[7]; Polymer-blended: 25% drug in polycaprolactone, 100 C., 2 h",>95%
same,% Intact drug,"[7]; Polymer-blended: 25% drug in polycaprolactone, 120 C., 2 h",>95%
same,% Intact drug,"[7]; Time: 1 mg/mL drug in water, room temperature, 5 days",62%
same,% Intact drug,[8]; 100 C.,86%
same,% Intact drug,[8]; 120 C.,>95%
CC(C)c1nc(N(C)S(C)(=O)=O)nc(-c2ccc(F)cc2)c1/C=C/[C@@H](O)C[C@@H](O)CC(=O)O [Rosuvastatin],elimination half-life,[9],approximately 19 hours
same,acid stability in PCL formulation versus in solution,[7]; FIG. 20,protects the drug from acid degradation
same,thermal stability in PCL formulation versus in solution,[7]; FIG. 21,protects the drug from degradation at elevated temperatures
Doxycycline Hyclate,LogP (Octanol/water),[2],−1.9
same,LogP (PCL/SGF),[6],0.27
same,PCL/SGF Partition Coefficient,[6],1.88
Ivermectin,LogP (Octanol/water),[2],4.1
same,LogP (PCL/SGF),[6],2.60
same,PCL/SGF Partition Coefficient,[6],398
